The test system of test [1] is SK-N-BE(2)-M17. Nature of the test: Induction of apoptosis in human SK-N-BE(2)-M17 cells assessed as PARP cleavage at 12.5 to 50 uM after 6 to 24 hrs by […]. In kind it is functional, cell-based. Particulars: dose microM 12.5-50, time hrs 6-24.
Test [2] has as its system SK-N-AS. Put plainly: Induction of apoptosis in human SK-N-AS cells assessed as PARP cleavage at 12.5 to 50 uM after 6 to 24 hrs by […]. In kind it is functional, cell-based. Particulars: dose microM 12.5-50, time hrs 6-24.
For test [3], the system named is Kelly. Nature of the test: (§1) Antiproliferative activity against human Kelly cells after 24 hrs. Type of test: functional.
Test [4] is described as follows: as §1. In kind it is functional. Particulars: read-out: ED50 (the source's name).
The subject of test [5] is SK-N-BE(2)-M17. Put plainly: Antiproliferative activity against human SK-N-BE(2)-M17 cells after 24 hrs. In kind it is functional.
Test [6] concerns SK-N-AS. Put plainly: Antiproliferative activity against human SK-N-AS cells after 24 hrs. In kind it is functional.
The subject of test [7] is SK-N-FI. Nature of the test: Antiproliferative activity against human SK-N-FI cells after 24 hrs. In kind it is functional.
In test [8] the test system is Kelly. Put plainly: Induction of apoptosis in human Kelly cells assessed as PARP cleavage at 12.5 to 50 uM after 6 to 24 hrs by […]. Type of test: functional, cell-based. Particulars: dose microM 12.5-50, time hrs 6-24.
Test [9] has as its system SK-N-FI. Nature of the test: Induction of apoptosis in human SK-N-FI cells assessed as PARP cleavage at 12.5 to 50 uM after 6 to 24 hrs by […]. Particulars: dose microM 12.5-50, time hrs 6-24. In kind it is functional, cell-based.
Where [10] appears, read: read-out: ED50 (the source's name).

In ChEMBL document CHEMBL4665742 (J Nat Prod, 2020) one finds Activity and EC50 data, which are given here for two molecules.

Active and inactive are the calls of the source. The rule behind the calls is not given here.

Turning to `C=CCS[S+]([O-])CC=C` (stereo not given) [ALLICIN], the result with SK-N-BE(2)-M17 [1], in the test on SK-N-AS [2], in the test on Kelly [8] and in the test on SK-N-FI [9] was Active. Besides, the Activity result in the test on Kelly [3], in the test with SK-N-BE(2)-M17 [5], with SK-N-AS [6] and in the test on SK-N-FI [7] was “Dose-dependent effect” throughout. Further, the EC50 in [4] turned out to be 9.21 µM; in the test with SK-N-BE(2)-M17 [5] (setting [10]) it was 10.3 µM; in the test with SK-N-AS [6] (setting [10]), 19.5 µM; in the test with SK-N-FI [7] (setting [10]), 18.1 µM.

Consider `NCCCC(N)(C(=O)O)C(F)F` (stereo not given), for which the Activity entry with SK-N-BE(2)-M17 [5], in the test on SK-N-AS [6] and in the test on SK-N-FI [7] was “Dose-dependent effect” each time.
